Data on 8 compounds can be found in paper PMC4185360 (Emerging Microbes & Infections, 2014).

In data set [1] the test system is EV71. Description: Antiviral potency assay, viral load by qRT-PCR in RD cells. It is filed as cell-based. Conditions: for IC90: read-out: IC90, EV71 replication (viral load by qRT-PCR).
Data set [2] has as its system coxsackievirus A16. It is filed as cell-based, Coxsackie virus A16 (strain shzh05-1). Conditions: 50 µM.
For data set [3], the system named is poliovirus-1 (Sabin). It is filed as cell-based. The following applies: TCID50 reduction assay.
Data set [4] has as its system EV71. Description: Time-of-addition assay, single round viral replication in RD cells. Type of data set: cell-based. The following applies: 10 µM. Here is the method:
Single round viral replication is get by infecting RD cell at multiplicity of infection of 5, collecting at 16 h post infection, and testing culture supernatant and intracellular RNA at 16 h post infection.
(A) Time of addition assay. The viral load in supernatant represents the means±s.e.m. of results of experiment with three replicates, and the intracellular viral load represents the result of a single test. […] Data represents the means±s.e.m. of results of experiment with three replications.

The subject of data set [5] is EV71. Kind of data set: Viral attachment assay (cell-virus adsorption at 4°C). It is filed as cell-based. Conditions: Enterovirus A, incubated with cells and virus at 4°C, read-out: IC90, virus binding to the cell.
Data set [6] has as its system EV71 particles. Kind of data set: STD NMR assay of binding to EV71 particles. Conditions: inactivated, purified EV71; molar ratio 1:100.
For data set [7] the following is noted: cited from earlier work.
For data set [8] the following is noted: source not given; cited from earlier work.
The target of data set [9] is T1, CYP1A2 (Homo sapiens, UniProt P05177).
T1 sequence (P05177 1-516): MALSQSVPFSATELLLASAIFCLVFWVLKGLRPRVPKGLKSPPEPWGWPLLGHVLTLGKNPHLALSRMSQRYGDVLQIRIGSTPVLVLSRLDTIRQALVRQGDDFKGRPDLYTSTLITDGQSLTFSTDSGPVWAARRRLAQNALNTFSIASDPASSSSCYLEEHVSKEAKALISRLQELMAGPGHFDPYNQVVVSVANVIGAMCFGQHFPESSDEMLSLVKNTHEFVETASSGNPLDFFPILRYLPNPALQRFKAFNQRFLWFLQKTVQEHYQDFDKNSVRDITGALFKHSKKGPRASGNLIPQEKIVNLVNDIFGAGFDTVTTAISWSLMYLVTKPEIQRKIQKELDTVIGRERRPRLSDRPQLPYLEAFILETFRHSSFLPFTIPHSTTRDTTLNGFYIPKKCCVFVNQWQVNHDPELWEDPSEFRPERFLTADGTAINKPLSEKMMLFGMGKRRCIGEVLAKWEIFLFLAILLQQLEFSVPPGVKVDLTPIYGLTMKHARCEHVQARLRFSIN
Description: in vitro. Conditions: microsomes.

Data set [10] concerns the target T2, CYP2C9 (Homo sapiens, UniProt P11712). Kind of data set: in vitro. The following applies: microsomes.
Data set [11] deals with T3, CYP2D6 (Homo sapiens, UniProt P10635). Description: in vitro. The following applies: human microsomes, probe marker substrate cocktail, O-demethylation (CYP2D6).
For data set [12], the target named is CYP3A4 (Homo sapiens, UniProt P08684). Kind of data set: in vitro. The following applies: human microsomes, probe marker substrate cocktail, 1′-hydroxylation (CYP3A4).
In data set [13] the target is T2, CYP2C9. Description: biochemical.
The target of data set [14] is T3, CYP2D6. Description: biochemical.
The nature of data set [15]: Cynomolgus monkey plasma pharmacokinetics. Conditions: male, iv, 4.37 mg/kg; for AUC(0-inf): AUC0-inf; for AUC(0-t): AUC0-last; for clearance: Cl; for Vd: Vdss.
The test system of data set [16] is mouse-adapted EV71 strain MP10. Description: In vivo anti-EV71 efficacy in 10-day-old ICR mice. Conditions: lethal dose EV71 MP10.
The test system of data set [17] is EV71 FY-23. Description: In vivo anti-EV71 efficacy in adult rhesus monkeys. The following applies: 50 mg/kg i.v. four times, between days 6 and 9 post-infection.
The mark [18] stands for this setting: Enterovirus A, EV71 isolate Fuyang573, RD cells.
Where [19] appears, read: mean of 3 monkeys, 4.37 mg/kg i.v. bolus.
Setting [20] is: monkey P101, 4.37 mg/kg i.v. bolus.
[21] abbreviates: monkey P102, 4.37 mg/kg i.v. bolus.
[22] abbreviates: monkey P103, 4.37 mg/kg i.v. bolus.

“And” between values parts separate entries of the source, which are not always exact repeats. Identical values can stand only once. Counter-ions that a name gives are not always drawn. Like-named read-outs stand apart in the source and are kept apart here. Bounds are passed on as bounds.

T2 sequence (P11712 whole entry): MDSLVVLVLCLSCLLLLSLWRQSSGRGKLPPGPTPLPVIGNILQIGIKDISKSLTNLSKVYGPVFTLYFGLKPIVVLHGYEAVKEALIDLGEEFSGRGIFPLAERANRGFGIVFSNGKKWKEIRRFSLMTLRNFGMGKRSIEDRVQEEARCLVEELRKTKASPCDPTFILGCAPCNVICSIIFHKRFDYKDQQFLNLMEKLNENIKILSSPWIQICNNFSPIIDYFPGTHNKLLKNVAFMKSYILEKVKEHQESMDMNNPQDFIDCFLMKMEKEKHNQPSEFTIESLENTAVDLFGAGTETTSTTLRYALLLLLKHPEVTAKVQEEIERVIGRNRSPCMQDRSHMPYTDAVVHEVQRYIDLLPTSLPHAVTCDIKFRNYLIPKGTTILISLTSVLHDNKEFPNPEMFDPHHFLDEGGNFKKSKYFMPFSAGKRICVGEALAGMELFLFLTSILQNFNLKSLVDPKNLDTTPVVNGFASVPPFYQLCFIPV
Chain of CYP3A4 (P08684 whole entry): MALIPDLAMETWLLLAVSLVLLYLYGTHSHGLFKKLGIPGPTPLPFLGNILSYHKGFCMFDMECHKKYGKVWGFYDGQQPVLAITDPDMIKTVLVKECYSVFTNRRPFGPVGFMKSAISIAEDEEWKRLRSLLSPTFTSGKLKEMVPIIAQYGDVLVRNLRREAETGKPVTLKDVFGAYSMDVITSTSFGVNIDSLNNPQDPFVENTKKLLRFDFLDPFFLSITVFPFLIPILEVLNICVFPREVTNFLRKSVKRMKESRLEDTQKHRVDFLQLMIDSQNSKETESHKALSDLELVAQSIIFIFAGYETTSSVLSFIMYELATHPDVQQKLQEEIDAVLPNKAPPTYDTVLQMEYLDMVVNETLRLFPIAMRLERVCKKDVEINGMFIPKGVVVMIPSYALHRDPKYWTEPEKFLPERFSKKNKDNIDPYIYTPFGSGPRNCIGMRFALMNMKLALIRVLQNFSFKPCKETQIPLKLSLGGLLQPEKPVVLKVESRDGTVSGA
T3 sequence (P10635 whole entry): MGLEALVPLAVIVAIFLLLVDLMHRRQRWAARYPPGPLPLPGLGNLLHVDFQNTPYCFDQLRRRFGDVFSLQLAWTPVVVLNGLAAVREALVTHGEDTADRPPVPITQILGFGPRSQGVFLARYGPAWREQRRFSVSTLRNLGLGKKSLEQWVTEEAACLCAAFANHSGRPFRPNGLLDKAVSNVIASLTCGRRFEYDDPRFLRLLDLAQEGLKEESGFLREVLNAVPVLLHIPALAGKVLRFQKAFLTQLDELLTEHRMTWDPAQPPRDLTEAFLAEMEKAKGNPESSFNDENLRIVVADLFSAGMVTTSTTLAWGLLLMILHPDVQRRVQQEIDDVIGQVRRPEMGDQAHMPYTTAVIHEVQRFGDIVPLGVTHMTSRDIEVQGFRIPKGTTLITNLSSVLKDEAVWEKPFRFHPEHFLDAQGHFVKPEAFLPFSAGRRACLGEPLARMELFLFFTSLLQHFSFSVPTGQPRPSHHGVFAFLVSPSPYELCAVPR

With `O=C(Nc1cc(C(=O)Nc2ccc(S(=O)(=O)O)cc2S(=O)(=O)O)cc(C(=O)Nc2ccc(S(=O)(=O)O)cc2S(=O)(=O)O)c1)Nc1cc(C(=O)Nc2ccc(S(=O)(=O)O)cc2S(=O)(=O)O)cc(C(=O)Nc2ccc(S(=O)(=O)O)cc2S(=O)(=O)O)c1` [NF 449, 4,4′,4″,4″′-[carbonylbis(imino-5,1,3-benzenetriyl-bis(carbonylimino))]tetrakis-1,3-benzenedisulfonic acid, octasodium salt], the IC90 in data set [1] (setting [18]) turned out to be 0.9 µM.
In the case of `Cc1ccc(C(=O)Nc2ccc(S(=O)(=O)O)c3cc(S(=O)(=O)O)cc(S(=O)(=O)O)c23)cc1NC(=O)c1cccc(NC(=O)Nc2cccc(C(=O)Nc3cc(C(=O)Nc4ccc(S(=O)(=O)O)c5cc(S(=O)(=O)O)cc(S(=O)(=O)O)c45)ccc3C)c2)c1` [suramin, Suramin sodium salt], the “reduction of coxsackievirus A16 replication” value in [2] is recorded as 10^6 TCID50/mL. Further, in [3], the “inhibition of poliovirus-1 (Sabin)” value was “not inhibited”. Besides, the “effect on viral replication” value in data set [4] (added after adsorption) was “no effect”. In addition, the “decrease of viral replication” value in data set [4] (added at the virus-cell adsorption stage) is above 1 log10. Further, the IC90 in [5] was found to be 6.17 µM. Moreover, in data set [6], the “STD NMR signals with EV71 particles” value is listed as “strong STD NMR signals”. Further, the half-life entry in data set [7] was “long”; in [15] (T1/2, mean of 3 monkeys, 4.37 mg/kg i.v. bolus) it was 104 h; in data set [15] (T1/2, monkey P101, 4.37 mg/kg i.v. bolus), 69.1 h; in [15] (T1/2, monkey P102, 4.37 mg/kg i.v. bolus), 112 h; in data set [15] (T1/2, monkey P103, 4.37 mg/kg i.v. bolus), 130 h. For the same compound, in [8], the serum protein binding entry was “high levels”. In addition, the inhibition at 10 min, 10 µM in [9] amounted to 40%; in data set [10], 0%; in data set [11], 7%; in data set [12], 5%. In addition, the inhibition at 10 min, 30 µM is 70% in [9], 8% in data set [10], 40% in [11] and 16% in [12]. The inhibition at 10 min, 100 µM in data set [9] stood at 89%; in [10] it was 32%; in data set [11], 49%; in data set [12] it was 34%. In addition, the IC50 in [13] is above 100 µM; in data set [14] it was > 100 µM (2×) and 45.5 µM. Further, the total exposure AUC(0-inf) worked out at 2330 µg·h/mL in [15] (setting [19]), 1960 µg·h/mL in [15] (setting [20]), 2400 µg·h/mL in [15] (setting [21]) and 2620 µg·h/mL in data set [15] (setting [22]). The area under the curve AUC(0-t) in data set [15] (setting [19]) turned out to be 1800 µg·h/mL; in data set [15] (setting [20]) it was 1660 µg·h/mL; in data set [15] (setting [21]) it was 1810 µg·h/mL; in data set [15] (setting [22]), 1930 µg·h/mL. Further, the C0 in data set [15] (C0, mean of 3 monkeys, 4.37 mg/kg i.v. bolus) came out at 128 µg/mL; in data set [15] (C0, monkey P101, 4.37 mg/kg i.v. bolus) it was 143 µg/mL; in data set [15] (C0, monkey P102, 4.37 mg/kg i.v. bolus), 96.3 µg/mL; in [15] (C0, monkey P103, 4.37 mg/kg i.v. bolus), 146 µg/mL. Also, the clearance in data set [15] (setting [19]) was 1.9 mL/h/kg; in data set [15] (setting [20]), 2.23 mL/h/kg; in data set [15] (setting [21]) it was 1.82 mL/h/kg; in data set [15] (setting [22]), 1.67 mL/h/kg. For the same compound, the peak concentration (Cmax) in data set [15] (setting [19]) stood at 142 µg/mL; in data set [15] (setting [20]), 169 µg/mL; in [15] (setting [21]), 117 µg/mL; in data set [15] (setting [22]) it was 141 µg/mL. Also, the Tmax in [15] (setting [19]) was determined as 3.6 min; in data set [15] (setting [20]) it was 4.8 min; in data set [15] (setting [21]), 4.8 min; in [15] (setting [22]), 1.8 min. The Vd is 0.199 L/kg in data set [15] (setting [19]), 0.176 L/kg in data set [15] (setting [20]), 0.212 L/kg in data set [15] (setting [21]) and 0.21 L/kg in data set [15] (setting [22]). Moreover, the survival rate in data set [16] (50 mg/kg i.p. twice daily for 7 days) is given as 30%. Moreover, the decrease of mortality in data set [16] (mice) amounted to 30%. Besides, the “viral genomic RNA in serum” value in [17] was < 20 copies of viral genomic RNA/mL.
As to heparin sodium salt, in data set [1], the “IC90, EV71 replication” value is 24.3 µg/mL.
Take `Cc1nc(/N=N/c2cc(S(=O)(=O)O)ccc2S(=O)(=O)O)c(COP(=O)(O)O)c(C=O)c1O` [iso-PPADS, pyridoxalphosphate-6-azophenyl-2′,5′-disulfonic acid tetrasodium salt]: in data set [1] (setting [18]), the IC90 turned out to be 6.4 µM.
Still for that read-out and setting: for `O=C(Nc1cccc(C(=O)Nc2ccc(S(=O)(=O)O)c3cc(S(=O)(=O)O)cc(S(=O)(=O)O)c23)c1)Nc1cccc(C(=O)Nc2ccc(S(=O)(=O)O)c3cc(S(=O)(=O)O)cc(S(=O)(=O)O)c23)c1` [NF 023, 8,8′-[carbonylbis(imino-3,1-phenylenecarbonylimino)]bis-1,3,5-naphthalene-trisulphonic acid, hexasodium salt] the value was 8.9 µM.
Turning to `O=S(=O)(O)c1cc(N=C=S)ccc1/C=C/c1ccc(N=C=S)cc1S(=O)(=O)O` [DIDS, 4,4′-diisothiocyanatostilbene-2,2′-disulfonic acid disodium salt], the 90% effect concentration (IC90) in [1] (Enterovirus A, EV71, RD) is 10.3 µM.
Regarding `Cc1nc(/N=N/c2ccc(S(=O)(=O)O)cc2S(=O)(=O)O)c(COP(=O)(O)O)c(C=O)c1O` [PPADS, pyridoxal phosphate-6-azo (benzene-2,4-disulfonic acid) tetrasodium salt hydrate], the IC90 in [1] (setting [18]) is 7 µM.
As to Sucralfate sodium, the concentration for an effect of 90% (IC90) in data set [1] (EV71 isolate Fuyang573, RD cells) was determined as 3.3 µM.

As a reminder, the IC90 is the concentration needed for an effect of 90%. Broadly, the half-life is the time needed for the level to fall by half in the phase considered. In general, inhibition refers to how much of the control response was suppressed. In general, IC50 refers to the concentration that inhibits the measured activity by half. What is called AUC(0-inf) is the area under the concentration-time curve extrapolated to infinity. The AUC(0-t) is the area under the concentration-time curve up to a stated or last time point. The term clearance denotes the rate of elimination divided by the concentration. What is called Cmax is the maximum level reached in the sampled fluid or tissue. The term Tmax denotes the time from dosing to the highest level. A word on the Vd: it is the apparent volume that relates the amount in the body to the concentration in plasma or blood.
